# From ChEMBL document CHEMBL3045586, “Synthesis and antimicrobial activity of some new 4-triazolylmethoxy-2H-chromen-2-one derivatives” (2012)
# Legend:
# Candida albicans [1] = assay: Fungicidal activity against Candida albicans MTCC 227 after 3 days; type: functional; details: MTCC 227, 72 h
# Aspergillus niger [2] = assay: Fungicidal activity against Aspergillus niger MTCC 282 after 3 days; type: functional; details: MTCC 282, 72 h
# Escherichia coli [3] = assay: Bactericidal against Escherichia coli MTCC 443 after 3 days; type: functional; details: MTCC 443, 72 h
# Klebsiella pneumoniae [4] = assay: Bactericidal activity against Klebsiella pneumoniae MTCC 432 after 3 days; type: functional; details: MTCC 432, 72 h
# Staphylococcus aureus [5] = assay: Bactericidal activity against Staphylococcus aureus MTCC 096 after 3 days; type: functional; details: MTCC 096, 72 h
# Candida albicans [6] = type: functional, MTCC 227
# Candida albicans [7] = assay: Antifungal activity against Candida albicans MTCC 227 after 28 to 30 hr by serial dilution method; type: functional
# Aspergillus flavus [8] = assay: Antifungal activity against Aspergillus flavus MTCC 277 at […] to […] ug/ml after 28 to 30 hr by cup-plate method; type: functional
# Aspergillus niger [9] = assay: Antifungal activity against Aspergillus niger MTCC 282 at […] to […] ug/ml after 28 to 30 hr by cup-plate method; type: functional
# Klebsiella pneumoniae [10] = type: functional, MTCC 432
# Aspergillus niger [11] = assay: Antifungal activity against Aspergillus niger MTCC 282 after 28 to 30 hr by serial dilution method; type: functional
# Klebsiella pneumoniae [12] = assay: Antibacterial activity against Klebsiella pneumoniae MTCC 432 after 16 to 18 hr by serial dilution method; type: functional
# Salmonella typhi [13] = assay: Antibacterial activity against Salmonella enterica subsp. enterica serovar Typhi MTCC 733 at […] to […] ug/ml after 16 to 18 hr by cup-plate method; type: functional
# Salmonella typhi [14] = assay: Antibacterial activity against Salmonella enterica subsp. enterica serovar Typhi MTCC 733 after 16 to 18 hr by serial dilution method; type: functional
# Pseudomonas aeruginosa [15] = type: functional, MTCC 424
# Pseudomonas aeruginosa [16] = assay: Antibacterial activity against Pseudomonas aeruginosa MTCC 424 after 16 to 18 hr by serial dilution method; type: functional
# Escherichia coli [17] = assay: Antibacterial activity against Escherichia coli MTCC 443 after 16 to 18 hr by serial dilution method; type: functional
# Escherichia coli [18] = type: functional, MTCC 443
# Aspergillus flavus [19] = assay: Antifungal activity against Aspergillus flavus MTCC 277 after 28 to 30 hr by serial dilution method; type: functional
# Aspergillus fumigatus [20] = assay: Antifungal activity against Aspergillus fumigatus MTCC 343 at […] to […] ug/ml after 28 to 30 hr by cup-plate method; type: functional
# Aspergillus fumigatus [21] = assay: Antifungal activity against Aspergillus fumigatus MTCC 343 after 28 to 30 hr by serial dilution method; type: functional
# [22] = test system: Staphylococcus epidermidis; type: functional, MTCC 435; also: test concentration or dose not given here
# [23] = test system: Staphylococcus epidermidis; assay: Antibacterial activity against Staphylococcus epidermidis MTCC 435 after 16 to 18 hr by serial dilution method; type: functional
# Bacillus subtilis [24] = assay: Antibacterial activity against Bacillus subtilis MTCC 441 after 16 to 18 hr by serial dilution method; type: functional
# Bacillus subtilis [25] = type: functional, MTCC 441
# Staphylococcus aureus [26] = type: functional, MTCC 096
# Staphylococcus aureus [27] = assay: Antibacterial activity against Staphylococcus aureus MTCC 096 after 16 to 18 hr by serial dilution method; type: functional
smiles,measurement,setting,value
COc1cc(-c2nnc(COc3cc(=O)oc4ccccc34)[nH]2)cc(OC)c1OC,MFC,Candida albicans [1],25 µg/mL
same,MFC,Aspergillus niger [2],25 µg/mL
same,MBC,Escherichia coli [3],25 µg/mL
same,MBC,Klebsiella pneumoniae [4],25 µg/mL
same,MBC,Staphylococcus aureus [5],25 µg/mL
same,inhibition zone (IZ),Candida albicans [6],12 mm
same,MIC,Candida albicans [7],12.5 µg/mL
same,inhibition zone (IZ),Aspergillus flavus [8],<10 mm
same,inhibition zone (IZ),Aspergillus niger [9],14 mm
same,inhibition zone (IZ),Klebsiella pneumoniae [10],11 mm
same,MIC,Aspergillus niger [11],6.25 µg/mL
same,MIC,Klebsiella pneumoniae [12],12.5 µg/mL
same,inhibition zone (IZ),Salmonella typhi [13],14 mm
same,MIC,Salmonella typhi [14],6.25 µg/mL
same,inhibition zone (IZ),Pseudomonas aeruginosa [15],<10 mm
same,MIC,Pseudomonas aeruginosa [16],25 µg/mL
same,MIC,Escherichia coli [17],12.5 µg/mL
same,inhibition zone (IZ),Escherichia coli [18],12 mm
same,MIC,Aspergillus flavus [19],25 µg/mL
same,inhibition zone (IZ),Aspergillus fumigatus [20],11 mm
same,MIC,Aspergillus fumigatus [21],25 µg/mL
same,inhibition zone (IZ),[22],12 mm
same,MIC,[23],12.5 µg/mL
same,MIC,Bacillus subtilis [24],6.25 µg/mL
same,inhibition zone (IZ),Bacillus subtilis [25],14 mm
same,inhibition zone (IZ),Staphylococcus aureus [26],14 mm
same,MIC,Staphylococcus aureus [27],6.25 µg/mL
COc1cc(-c2nnc(COc3cc(=O)oc4ccccc34)[nH]2)ccc1O,MFC,Candida albicans [1],12.5 µg/mL
same,MFC,Aspergillus niger [2],12.5 µg/mL
same,MBC,Escherichia coli [3],12.5 µg/mL
same,MBC,Klebsiella pneumoniae [4],12.5 µg/mL
same,MBC,Staphylococcus aureus [5],12.5 µg/mL
same,inhibition zone (IZ),Candida albicans [6],14 mm
same,MIC,Candida albicans [7],6.25 µg/mL
same,inhibition zone (IZ),Aspergillus flavus [8],<10 mm
same,inhibition zone (IZ),Aspergillus niger [9],12 mm
same,inhibition zone (IZ),Klebsiella pneumoniae [10],15 mm
same,MIC,Aspergillus niger [11],12.5 µg/mL
same,MIC,Klebsiella pneumoniae [12],6.25 µg/mL
same,inhibition zone (IZ),Salmonella typhi [13],14 mm
same,MIC,Salmonella typhi [14],6.25 µg/mL
same,inhibition zone (IZ),Pseudomonas aeruginosa [15],<10 mm
same,MIC,Pseudomonas aeruginosa [16],25 µg/mL
same,MIC,Escherichia coli [17],6.25 µg/mL
same,inhibition zone (IZ),Escherichia coli [18],13 mm
same,MIC,Aspergillus flavus [19],25 µg/mL
same,inhibition zone (IZ),Aspergillus fumigatus [20],13 mm
same,MIC,Aspergillus fumigatus [21],12.5 µg/mL
same,inhibition zone (IZ),[22],<10 mm
same,MIC,[23],50 µg/mL
same,MIC,Bacillus subtilis [24],12.5 µg/mL
same,inhibition zone (IZ),Bacillus subtilis [25],11 mm
same,inhibition zone (IZ),Staphylococcus aureus [26],15 mm
same,MIC,Staphylococcus aureus [27],6.25 µg/mL
O=c1cc(OCc2nnc(-c3ccc(F)cc3)[nH]2)c2ccccc2o1,MFC,Candida albicans [1],12.5 µg/mL
same,MFC,Aspergillus niger [2],25 µg/mL
same,MBC,Escherichia coli [3],25 µg/mL
same,MBC,Klebsiella pneumoniae [4],25 µg/mL
same,MBC,Staphylococcus aureus [5],12.5 µg/mL
same,inhibition zone (IZ),Candida albicans [6],14 mm
same,MIC,Candida albicans [7],6.25 µg/mL
same,inhibition zone (IZ),Aspergillus flavus [8],11 mm
same,inhibition zone (IZ),Aspergillus niger [9],13 mm
same,inhibition zone (IZ),Klebsiella pneumoniae [10],13 mm
same,MIC,Aspergillus niger [11],12.5 µg/mL
same,MIC,Klebsiella pneumoniae [12],6.25 µg/mL
same,inhibition zone (IZ),Salmonella typhi [13],11 mm
same,MIC,Salmonella typhi [14],12.5 µg/mL
same,inhibition zone (IZ),Pseudomonas aeruginosa [15],<10 mm
same,MIC,Pseudomonas aeruginosa [16],25 µg/mL
same,MIC,Escherichia coli [17],12.5 µg/mL
same,inhibition zone (IZ),Escherichia coli [18],11 mm
same,MIC,Aspergillus flavus [19],12.5 µg/mL
same,inhibition zone (IZ),Aspergillus fumigatus [20],12 mm
same,MIC,Aspergillus fumigatus [21],12.5 µg/mL
same,inhibition zone (IZ),[22],<10 mm
same,MIC,[23],50 µg/mL
same,MIC,Bacillus subtilis [24],50 µg/mL
same,inhibition zone (IZ),Bacillus subtilis [25],<10 mm
same,inhibition zone (IZ),Staphylococcus aureus [26],13 mm
same,MIC,Staphylococcus aureus [27],6.25 µg/mL
COc1ccc(-c2nnc(COc3cc(=O)oc4ccccc34)[nH]2)cc1OC,MFC,Candida albicans [1],25 µg/mL
same,MFC,Aspergillus niger [2],25 µg/mL
same,MBC,Escherichia coli [3],25 µg/mL
same,MBC,Klebsiella pneumoniae [4],25 µg/mL
same,MBC,Staphylococcus aureus [5],12.5 µg/mL
same,inhibition zone (IZ),Candida albicans [6],15 mm
same,MIC,Candida albicans [7],6.25 µg/mL
same,inhibition zone (IZ),Aspergillus flavus [8],<10 mm
same,inhibition zone (IZ),Aspergillus niger [9],13 mm
same,inhibition zone (IZ),Klebsiella pneumoniae [10],11 mm
same,MIC,Aspergillus niger [11],6.25 µg/mL
same,MIC,Klebsiella pneumoniae [12],12.5 µg/mL
same,inhibition zone (IZ),Salmonella typhi [13],13 mm
same,MIC,Salmonella typhi [14],6.25 µg/mL
same,inhibition zone (IZ),Pseudomonas aeruginosa [15],<10 mm
same,MIC,Pseudomonas aeruginosa [16],25 µg/mL
same,MIC,Escherichia coli [17],25 µg/mL
same,inhibition zone (IZ),Escherichia coli [18],<10 mm
same,MIC,Aspergillus flavus [19],25 µg/mL
same,inhibition zone (IZ),Aspergillus fumigatus [20],<10 mm
same,MIC,Aspergillus fumigatus [21],25 µg/mL
same,inhibition zone (IZ),[22],<10 mm
same,MIC,[23],25 µg/mL
same,MIC,Bacillus subtilis [24],25 µg/mL
same,inhibition zone (IZ),Bacillus subtilis [25],<10 mm
same,inhibition zone (IZ),Staphylococcus aureus [26],14 mm
same,MIC,Staphylococcus aureus [27],6.25 µg/mL
